Measurements from patent US20250082577A1, “POLYMER BEADLET COMPOSITIONS AND METHODS OF USE THEREOF FOR IMPROVED STABILITY, BIOAVAILABILITY & SUSTAINED RELEASE” (SpecNova LLC, priority 2023, published 2025).

What was measured:
[1] = whole-body creatine retention from 24-hour urine, double-blind randomized crossover study; conditions: 2 x 5 g oral, 8 hours apart (total 10 grams), fifteen females and males
Procedure: Participants adhered to a plant-based protein diet prior to each testing session. […] Participants were then randomly assigned to ingest capsules containing 5 g of CrM or 5 g of CrM prepared in beadlets (CrM-Bead). […] Participants repeated the experiment after a seven-day washout while ingesting the crossover supplement, i.e. the CrM-Bead group was given CrM and the CrM group was given Crm-Beads. Whole-body creatine retention was determined by subtracting CrM intake from the difference between post-supplementation urine creatine content and expressed in percent retention.

[2] = cited from earlier work

In the case of `CN(CC(=O)O)C(=N)N.O` [CrM, creatine monohydrate], the “24-hour whole-body creatine retention” value [1] is given as 81.8%±11.4% and the “time to return to baseline in the blood after oral ingestion” value [2] is given as 4 to 5 h.
